The values that follow come from patent publication US11698357B2, “Method for screening, isolating and purifying analytes” (CHANG GUNG UNIVERSITY, priority 2019, dated 2023).

Data set [1] relates to MES-SA/Dx5 cells. Put plainly: Percentage of live cells by fluorescent dye staining (DiB / EthD-1) and microscopy. The format is cell-based, human. On the procedure: (§1) In the present embodiment, cancer cell lines with (MES-SA/Dx5 cells; abbreviated as “Dx5” from the BCRC of Food Industry Research and Development Institute (FIRDI), Taiwan) and without (MES-SA cells from the BCRC of FIRDI) anti-cancer drug resistance were separately treated with various concentrations (0, 2.5, 5.0, 7.5, 10.0, 12.5, 15.0 μg ml^−1) of doxorubicin (doxorubicin hydrochloride; Enzo Life Sciences, CH) for 48 hours. The percentage of live cells was then evaluated by a combination of fluorescent dye staining and microscopic observation. Briefly, the drug-treated Dx5 cells were stained with the DiB cytoplasmic membrane labelling dye (Biotium, CA USA) and EthD-1 fluorescent dye (ethidium homodimer-1; Thermo Fisher Scientific, MA USA) to identify the living (blue staining), and dead (red staining) Dx5 cells, respectively. The drug-treated MES-SA cells were stained with Calcein-AM and EthD-1 fluorescent dyes (LIVE/DEAD1 Viability/Cytotoxicity Kit L-3224; Thermo Fisher Scientific, MA USA) to identify the living (green staining) and dead (red staining) cells, respectively. All the assays were performed according to the manufacturer's instructions. This was followed by microscopic observation using a fluorescence microscope (Zoom 160, OPTEM, USA). The overall viability of the cancer cells was then evaluated by determining the number of live cells relative to that of whole cells.

The subject of data set [2] is MES-SA/Dx5 cells. Kind of data set: MTT assay cell viability. Type of data set: cell-based. To be noted: Homo sapiens, 5.0 μg ml^−1 doxorubicin, 48 hours. The protocol:
(§2) Cell viability was also evaluated by assaying the intercellular dehydrogenase activity of cells using the commonly used MTT (thiazolyl blue tetrazolium bromide; Sigma Aldrich, MO USA) assay. Briefly, the cancer cells (i.e., MES-SA and Dx5 cells) were separately treated with doxorubicin as mentioned above. The drug-treated cancer cells were then assayed for viability (%) based on the manufacturer's instructions for the MTT assay kit.

Data set [3] deals with MES-SA cells. Kind of data set: MTT assay cell viability. Type of data set: cell-based, human. Conditions: 48 hours. The protocol:
as §2

For data set [4], the system named is MES-SA cells. Kind of data set: Percentage of live cells by fluorescent dye staining (Calcein-AM / EthD-1) and microscopy. Type of data set: cell-based, human. On the procedure: as §1
Setting [5] is: 5.0 μg ml^−1 doxorubicin for 48 hours.
Where [6] appears, read: 5.0 μg ml^−1 doxorubicin, 48 hours.

The structures appear in SMILES notation.

For orientation: viability means a read-out of living cells in per cent, often relative to untreated cells. Read a low viability as a greater loss of cells. Regarding `COc1cccc2c1C(=O)c1c(O)c3c(c(O)c1C2=O)C[C@@](O)(C(=O)CO)C[C@@H]3O[C@H]1C[C@H](N)[C@H](O)[C@H](C)O1` [doxorubicin], the dead cell percentage in the data set on MES-SA/Dx5 cells [1] (setting [5]) is reported as 4.5%; in the data set on MES-SA cells [4] (setting [5]), 73.9%. In addition, the results for the “percentage of live cells” value in the data set with MES-SA/Dx5 cells [1] (setting [6]) and in the data set on MES-SA cells [4] (setting [6]) were 95.5% and 26.1%, respectively. The viability at 5 µg/mL with MES-SA/Dx5 cells [2] worked out at 73.5%; in the data set with MES-SA cells [3] (Homo sapiens, 5.0 μg ml^−1 doxorubicin), 2.2%. The “cell viability (%) (MTT)” value with MES-SA cells [3] (various concentrations of doxorubicin) is approximately 0%.
